Consider 20 compounds from patent US8258151B2, “3-aminoimidazo [1,2-A] pyridine derivatives as SGLT inhibitors” (Merck Patent GmbH, priority 2006, dated 2012).

Assay [1] concerns the target T1, SGLT2 (Homo sapiens, UniProt P31639).
T1 construct: expressed in transfected cells
T1 sequence (P31639 1-672): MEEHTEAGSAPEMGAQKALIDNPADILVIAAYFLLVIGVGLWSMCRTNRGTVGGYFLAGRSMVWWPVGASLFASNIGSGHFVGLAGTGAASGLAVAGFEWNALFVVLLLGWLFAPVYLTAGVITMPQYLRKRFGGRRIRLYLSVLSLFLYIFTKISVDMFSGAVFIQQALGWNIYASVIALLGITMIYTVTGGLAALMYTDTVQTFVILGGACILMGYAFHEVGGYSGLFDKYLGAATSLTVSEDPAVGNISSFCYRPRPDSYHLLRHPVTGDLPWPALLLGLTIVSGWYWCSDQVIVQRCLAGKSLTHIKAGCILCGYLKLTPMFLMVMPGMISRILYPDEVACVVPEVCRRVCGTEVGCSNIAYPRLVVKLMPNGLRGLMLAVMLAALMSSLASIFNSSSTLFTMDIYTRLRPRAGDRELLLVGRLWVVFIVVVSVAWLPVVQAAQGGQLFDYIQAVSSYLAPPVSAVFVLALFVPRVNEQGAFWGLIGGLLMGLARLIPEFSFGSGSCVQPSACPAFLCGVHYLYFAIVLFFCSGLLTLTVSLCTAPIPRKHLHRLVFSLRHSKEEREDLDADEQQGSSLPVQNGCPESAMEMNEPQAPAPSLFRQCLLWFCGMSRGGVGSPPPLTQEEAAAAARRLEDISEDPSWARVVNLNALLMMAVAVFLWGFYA
Briefly: SGLT2 activity measurement: 14C-AMG uptake in BHK cells transfected with SGLT2. Format: cell-based. The following applies: AMG 2 mM, 37° C., 90 min. The method in brief: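 BHK21 cells stably expressing human SGLT2 took up 14C-AMG (added as 2 mM solution) ± compound for 90 min at 37 °C in Na+-containing HEPES/Tris buffer, pH 7.4. Uptake was measured by scintillation counting after lysis. Non-specific uptake was defined in sodium-free sucrose buffer.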

Assay [2] addresses T2, SGLT1 (Homo sapiens, UniProt P13866).
T2 construct: expressed in transfected cells
T2 sequence (P13866 1-664): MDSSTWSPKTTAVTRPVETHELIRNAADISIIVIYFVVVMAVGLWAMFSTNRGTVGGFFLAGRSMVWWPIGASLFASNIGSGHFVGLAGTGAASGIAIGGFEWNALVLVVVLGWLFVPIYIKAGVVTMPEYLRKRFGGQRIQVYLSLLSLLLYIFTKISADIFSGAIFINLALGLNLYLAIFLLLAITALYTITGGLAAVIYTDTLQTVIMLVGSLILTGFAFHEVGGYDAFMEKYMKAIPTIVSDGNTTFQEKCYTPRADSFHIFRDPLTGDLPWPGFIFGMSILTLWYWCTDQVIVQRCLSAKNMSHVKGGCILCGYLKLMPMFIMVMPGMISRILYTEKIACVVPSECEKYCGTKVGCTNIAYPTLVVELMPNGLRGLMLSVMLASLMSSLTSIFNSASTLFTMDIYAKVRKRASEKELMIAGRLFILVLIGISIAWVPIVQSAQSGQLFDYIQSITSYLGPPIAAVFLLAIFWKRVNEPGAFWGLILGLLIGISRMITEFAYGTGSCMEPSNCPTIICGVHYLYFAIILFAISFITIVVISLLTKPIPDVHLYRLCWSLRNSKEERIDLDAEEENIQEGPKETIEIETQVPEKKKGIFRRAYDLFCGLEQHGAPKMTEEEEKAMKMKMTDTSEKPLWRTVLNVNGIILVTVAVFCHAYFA
Briefly: SGLT1 activity measurement: 14C-AMG uptake in BHK cells transfected with SGLT1. It counts as cell-based. The following applies: AMG 50 μM, 37° C., 90 min. The method in brief:
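BHK21 cells stably transfected with human SLC5A1 were incubated with 14C-AMG (added solution at 50 μM) ± compound for 90 min at 37 °C. The buffer was 140 mM NaCl, HEPES/Tris, pH 7.4. Lysed-cell radioactivity was counted by scintillation, and non-specific uptake was measured in sodium-free sucrose buffer.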

Take `Cc1cccc(C)c1Nc1c(-c2c(C)cc(OC3COC(=O)O3)cc2OCC(N)=O)nc2ccc(F)cn12` (stereo not shown) [Compound A190, 2-[2-(Aminocarbonylmethoxy)-4-(2-oxo-1,3-dioxolan-4-yloxy)-6-methylphenyl]-3-(2,6-dimethylphenylamino)-6-fluoroimidazo[1,2-a]-pyridine]: the IC50 (as a rule, the concentration that gives 50% inhibition) is 10 to 1000 nM in assay [1] and over 10000 nM in assay [2].

For the compound `COc1cc(C)c(-c2nc3c(N)cccn3c2Nc2c(C)cccc2C)c(OCC(N)=O)c1` [Compound A191, 2-[2-(Aminocarbonylmethoxy)-4-methoxy-6-methylphenyl]-3-(2,6-dimethylphenylamino)-8-aminoimidazo[1,2-a]pyridine], the IC50 in assay [1] is 10 to 1000 nM; in assay [2], over 10000 nM.

For `CCc1cc(OC)cc(OCC(N)=O)c1-c1nc2c(N)cccn2c1Nc1c(C)cccc1C` [Compound A192, 2-[2-(Aminocarbonylmethoxy)-4-methoxy-6-ethylphenyl]-3-(2,6-dimethylphenylamino)-8-aminoimidazo[1,2-a]pyridine], the IC50 in assay [1] is 10 to 1000 nM; in assay [2], over 10000 nM.

As for `CCc1cc(OC)cc(OCC(N)=O)c1-c1nc2c(O)cccn2c1Nc1c(C)cccc1C` [Compound A194, 2-[2-(Aminocarbonylmethoxy)-4-methoxy-6-ethylphenyl]-3-(2,6-dimethylphenylamino)-8-hydroxyimidazo[1,2-a]pyridine], the IC50 in assay [1] was 1000 to 10000 nM; in assay [2], over 10000 nM.

For the compound `CCc1cc(OCCO)cc(OCC(N)=O)c1-c1nc2ccc(F)cn2c1Nc1c(C)cccc1C` [Compound A195, 2-[2-(Aminocarbonylmethoxy)-4-(2-hydroxy-ethoxy)-6-ethylphenyl]-3-(2,6-dimethylphenyl-amino)-6-fluoroimidazo[1,2-a]pyridine], the values for the IC50 in assay [1] and in assay [2] were 10 to 1000 nM and over 10000 nM, respectively.

For the compound `CCOc1cc(CC)c(-c2nc3ccc(F)cn3c2Nc2c(C)cccc2C)c(OCC(N)=O)c1` [Compound A196, 2-[2-(Aminocarbonylmethoxy)-4-ethoxy-6-ethyl-phenyl]-3-(2,6-dimethylphenylamino)-6-fluoro-imidazo[1,2-a]pyridine], the IC50 is 10 to 1000 nM in assay [1] and over 10000 nM in assay [2].

`COc1cc(Cl)c(-c2nc3ccc(F)cn3c2Nc2c(C)cccc2C)c(OCC(N)=O)c1` [Compound A197, 2-[2-(Aminocarbonylmethoxy)-4-methoxy-6-chlorophenyl]-3-(2,6-dimethylphenylamino)-6-fluoroimidazo[1,2-a]pyridine]: the figures for the IC50 in assay [1] and in assay [2] were 10 to 1000 nM and over 10000 nM, respectively.

Turning to `CCc1cc(OC2COC(=O)O2)cc(OCC(N)=O)c1-c1nc2ccc(F)cn2c1Nc1c(C)cccc1C` (stereo not shown) [Compound A198, 2-[2-(Aminocarbonylmethoxy)-4-(2-oxo-1,3-dioxolan-4-yloxy)-6-ethylphenyl]-3-(2,6-dimethyl-phenylamino)-6-fluoroimidazo[1,2-a]pyridine], the results for the IC50 in assay [1] and in assay [2] were 10 to 1000 nM and 1000 to 10000 nM, respectively.

Take `COc1cc(OC)c(-c2nc3ccc(F)cn3c2Nc2c(C)cccc2C)c(OCC(N)=O)c1` [Compound A199, 2-[2-(Aminocarbonylmethoxy)-4-methoxy-6-methoxyphenyl]-3-(2,6-dimethylphenylamino)-6-fluoroimidazo[1,2-a]pyridine]: the 50% inhibitory concentration (IC50) in assay [1] is 10 to 1000 nM; in assay [2], over 10000 nM.

`COc1cc(OC)c(-c2nc3ccc(F)cn3c2Nc2c(C)cc(F)cc2C)c(OCC(N)=O)c1` [Compound A200, 2-[2-(Aminocarbonylmethoxy)-4-methoxy-6-methoxyphenyl]-3-(2,6-dimethyl-4-fluorophenyl-amino)-6-fluoroimidazo[1,2-a]pyridine]: the results for the IC50 in assay [1] and in assay [2] were 10 to 1000 nM and over 10000 nM, respectively.

In the case of `COc1cc(C)c(-c2nc3ccc(F)cn3c2Nc2c(C)cccc2C)c(OCC(N)=O)c1OC` [Compound A201, 2-[2-(Aminocarbonylmethoxy)-3,4-dimethoxy-6-methylphenyl]-3-(2,6-dimethylphenylamino)-6-fluoroimidazo[1,2-a]pyridine], the figures for the half-maximal inhibitory concentration (IC50) in assay [1] and in assay [2] were 1000 to 10000 nM and over 10000 nM, respectively.

Consider `CCc1cc(OC)cc(OCC(N)=O)c1-c1nc2ccccn2c1Nc1c(C)cccc1C` [Compound A202, 2-[2-(Aminocarbonylmethoxy)-4-methoxy-6-ethylphenyl]-3-(2,6-dimethylphenylamino)-imidazo[1,2-a]pyridine], for which the results for the IC50 in assay [1] and in assay [2] were 10 to 1000 nM and 1000 to 10000 nM, respectively.

As to `CCc1cc(OC)cc(OCC(N)=O)c1-c1nc2ccccn2c1Nc1c(C)cc(F)cc1C` [Compound A203, 2-[2-(Aminocarbonylmethoxy)-4-methoxy-6-ethylphenyl]-3-(2,6-dimethyl-4-fluorophenyl-amino)imidazo[1,2-a]pyridine], the values for the IC50 in assay [1] and in assay [2] were 10 to 1000 nM and 1000 to 10000 nM, respectively.

In the case of `COc1cc(C)c(-c2nc3ccc(F)cn3c2Nc2c(C)cccc2C)c(OCC(N)=O)c1` [Compound A204, 2-[2-(Aminocarbonylmethoxy)-4-methoxy-6-methylphenyl]-3-(2,6-dimethylphenylamino)-6-fluoroimidazo[1,2-a]pyridine], the IC50 in assay [1] is 10 to 1000 nM; in assay [2], 1000 to 10000 nM.

On to `COc1cc(C)c(-c2nc3ccc(F)cn3c2Nc2c(Cl)cccc2Cl)c(OCC(N)=O)c1` [Compound A205, 2-[2-(Aminocarbonylmethoxy)-4-methoxy-6-methylphenyl]-3-(2,6-dichlorophenylamino)-6-fluoroimidazo[1,2-a]pyridine], for which the results for the IC50 in assay [1] and in assay [2] were 10 to 1000 nM and 1000 to 10000 nM, respectively.

As for `COc1cc(C)c(-c2nc3cccc(C)n3c2Nc2c(C)cccc2C)c(OCC(N)=O)c1` [Compound A206, 2-[2-(Aminocarbonylmethoxy)-4-methoxy-6-methylphenyl]-3-(2,6-dimethylphenylamino)-5-methylimidazo[1,2-a]pyridine], the IC50 in assay [1] is 10 to 1000 nM; in assay [2] it was over 10000 nM.

Take `COc1cc(C)c(-c2nc3cccc(N)n3c2Nc2c(C)cccc2C)c(OCC(N)=O)c1` [Compound A207, 2-[2-(Aminocarbonylmethoxy)-4-methoxy-6-methylphenyl]-3-(2,6-dimethylphenylamino)-5-aminoimidazo[1,2-a]pyridine]: the IC50 in assay [1] was 10 to 1000 nM; in assay [2] it was over 10000 nM.

For `Cc1cccc(C)c1Nc1c(-c2c(C)cc(OCC(O)CO)cc2OCC(N)=O)nc2ccc(F)cn12` (stereo not shown) [Compound A208, 2-[2-(Aminocarbonylmethoxy)-4-(2,3-dihydroxy-propoxy)-6-methylphenyl]-3-(2,6-dimethylphenyl-amino)-6-fluoroimidazo[1,2-a]pyridine], the IC50 was 10 to 1000 nM in assay [1] and over 10000 nM in assay [2].

As to `Cc1cccc(C)c1Nc1c(-c2ccccc2OCC(N)=O)nc2ccc(C#N)cn12` [Compound A209, 2-[2-(Aminocarbonylmethoxy)phenyl]-3-(2,6-dimethylphenylamino)-6-cyanoimidazo[1,2-a]-pyridine], the IC50 is 1000 to 10000 nM in assay [1] and over 10000 nM in assay [2].

Turning to `Cc1cccc(C)c1Nc1c(-c2ccccc2OCC(N)=O)nc2cc(C#N)ccn12` [Compound A210, 2-[2-(Aminocarbonylmethoxy)phenyl]-3-(2,6-dimethylphenylamino)-7-cyanoimidazo[1,2-a]-pyridine], the concentration for half-maximal inhibition (IC50) in assay [1] and in assay [2] was over 10000 nM throughout.
